In ChEMBL document CHEMBL1201862, “PubChem BioAssay data set” (2004):
Active and inactive are the calls of the source.

Assays:
[1] = target: NACHT, LRR and PYD domains-containing protein 3 (Homo sapiens, UniProt Q96P20); test: NALP3 inhibitors in yeast, dose response, luminescent (AID 488799); assay type: functional
[2] = target: Glucose-6-phosphate 1-dehydrogenase (Homo sapiens, UniProt P11413); test: human G6PD enzyme inhibitors, dose response, selectivity assay for P. falciparum G6PD inhibitor project, biochemical, fluorescence (AID 504792); assay type: functional
Chain of Glucose-6-phosphate 1-dehydrogenase (P11413 whole entry, the tested form may be a part): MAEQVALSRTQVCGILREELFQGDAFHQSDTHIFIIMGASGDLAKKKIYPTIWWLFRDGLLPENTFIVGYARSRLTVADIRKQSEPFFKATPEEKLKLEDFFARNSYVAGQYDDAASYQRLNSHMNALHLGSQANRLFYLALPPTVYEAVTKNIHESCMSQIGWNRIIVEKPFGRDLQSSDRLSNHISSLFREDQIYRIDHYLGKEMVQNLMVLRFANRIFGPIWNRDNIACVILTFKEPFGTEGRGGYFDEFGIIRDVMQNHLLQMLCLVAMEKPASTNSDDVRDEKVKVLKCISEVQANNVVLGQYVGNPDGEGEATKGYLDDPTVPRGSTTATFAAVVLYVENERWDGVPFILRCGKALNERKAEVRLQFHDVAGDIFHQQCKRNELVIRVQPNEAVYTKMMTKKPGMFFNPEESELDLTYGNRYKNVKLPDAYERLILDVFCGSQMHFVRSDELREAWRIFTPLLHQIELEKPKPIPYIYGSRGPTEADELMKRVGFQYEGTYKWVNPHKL

[3] = luciferase reporter signal reduction – luminescence, H4-C neuroglioblastoma cells, dose response (AID 2458); assay type: functional, cell-based;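 further: H4 neuroglioblastoma cells stably carrying a luciferase reporter gene fusion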
[4] = cytotoxicity in HEK-293T cells, dose response, cytotoxicity control for TCR NF-kB inhibitor project, luminescence, T-cell screen hits (AID 489026); assay type: functional, cell-based;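 further: cells exposed to compound about 14 hours before the viability readout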
cells = assay type: functional, cell-based
[5] = Luminescence-based dose response cell-based high throughput screening assay for cytotoxic compounds using the IEC-6 intestinal epithelial cell line. [Related pubchem assays: 1858 (Summary AID.), 1825 (Counterscreen.), 1907 (Confirmation screen.)]; assay type: functional
[6] = Luminescence Cell-Based Dose Response HTS to Identify Inhibitors of 5'UTR Stem-Loop Driven Prion Protein mRNA Translation in H4 Neuroglioblastoma Cells. [Related pubchem assays: 1827 (Project Summary), 1813 (Primary HTS)]; assay type: functional
BJ [7] = test: cells; assay type: functional, cell-based; conditions: Homo sapiens
[8] = inhibitors of firefly luciferase expression or activity, dose response, H4 neuroglioma cells, luminescence (AID 1990); assay type: functional, cell-based
[9] = inhibitors of SNCA 5'UTR-driven reporter translation, confirmation, H4 neuroglioma cells, luminescence (AID 1988); assay type: functional, cell-based
[10] = inhibitors of SNCA 5'UTR-driven translation, confirmation, luminescence, H4 neuroglioblastoma cells, dose confirmation (AID 2454); assay type: functional, cell-based;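 further: H4 neuroglioblastoma cells carrying an alpha-synuclein 5'UTR luciferase reporter; potency for inhibition of the luciferase signal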
[11] = target: G-protein coupled receptor 55 (Homo sapiens, UniProt Q9Y2T6); test: GPR55 agonists via beta-arrestin recruitment, primary screen, imaging, U2OS cells, beta-arrestin-GFP redistribution (AID 1961); assay type: functional
Chain of G-protein coupled receptor 55 (Q9Y2T6 whole entry): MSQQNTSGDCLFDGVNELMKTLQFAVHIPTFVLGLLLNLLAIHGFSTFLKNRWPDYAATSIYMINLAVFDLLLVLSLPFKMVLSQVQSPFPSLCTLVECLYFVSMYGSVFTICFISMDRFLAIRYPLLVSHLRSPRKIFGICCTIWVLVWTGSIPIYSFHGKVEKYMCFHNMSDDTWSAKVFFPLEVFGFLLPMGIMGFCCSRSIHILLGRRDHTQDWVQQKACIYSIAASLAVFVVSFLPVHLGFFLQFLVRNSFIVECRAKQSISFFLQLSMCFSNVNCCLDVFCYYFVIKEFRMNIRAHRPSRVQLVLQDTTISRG

[12] = blockers of SFLLRN-triggered platelet ATP secretion – cell-based, human platelets, luminescence, dry powder, dose response (AID 493100); assay type: functional
[13] = target: T1, Rac GTPase-activating protein 1 (Homo sapiens, UniProt Q9H0H5); test: MgcRacGAP GTPase-activating activity inhibitors, confirmation, biochemical, ADP Hunter fluorescence, primary and confirmatory (AID 624330); assay type: functional
T1 sequence (Q9H0H5 whole entry): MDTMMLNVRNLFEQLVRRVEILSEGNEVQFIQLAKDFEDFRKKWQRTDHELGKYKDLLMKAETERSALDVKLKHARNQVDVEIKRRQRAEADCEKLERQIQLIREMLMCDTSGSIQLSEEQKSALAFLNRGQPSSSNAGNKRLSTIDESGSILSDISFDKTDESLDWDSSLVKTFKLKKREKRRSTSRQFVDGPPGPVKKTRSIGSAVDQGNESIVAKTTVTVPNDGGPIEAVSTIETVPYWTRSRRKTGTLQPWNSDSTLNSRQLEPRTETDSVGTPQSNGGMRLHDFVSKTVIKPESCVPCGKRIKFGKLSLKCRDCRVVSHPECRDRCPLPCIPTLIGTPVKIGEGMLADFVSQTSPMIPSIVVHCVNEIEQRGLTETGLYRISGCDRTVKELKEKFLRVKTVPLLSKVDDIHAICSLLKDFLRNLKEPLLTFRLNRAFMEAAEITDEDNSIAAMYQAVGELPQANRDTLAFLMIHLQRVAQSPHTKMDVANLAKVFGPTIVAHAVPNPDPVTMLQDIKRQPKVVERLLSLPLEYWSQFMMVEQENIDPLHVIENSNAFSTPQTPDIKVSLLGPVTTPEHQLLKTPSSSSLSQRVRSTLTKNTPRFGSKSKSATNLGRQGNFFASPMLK

[14] = target: Cyclin-dependent kinase 5/CDK5 activator 1 (Homo sapiens, UniProt Q00535); test: CDK5/p35 kinase inhibitors, dose response, biochemical, cherry-picked samples, set 2 (AID 504545)
Chain of Cyclin-dependent kinase 5/CDK5 activator 1 (Q00535 whole entry): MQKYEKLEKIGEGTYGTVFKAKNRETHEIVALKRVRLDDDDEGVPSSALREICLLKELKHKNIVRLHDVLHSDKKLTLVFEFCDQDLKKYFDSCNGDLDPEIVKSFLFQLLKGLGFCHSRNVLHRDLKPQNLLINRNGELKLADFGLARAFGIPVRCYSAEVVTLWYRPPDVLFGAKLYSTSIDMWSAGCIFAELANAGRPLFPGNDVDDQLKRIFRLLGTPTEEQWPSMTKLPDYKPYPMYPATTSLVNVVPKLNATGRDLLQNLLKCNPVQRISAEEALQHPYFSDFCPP
Chain of Cyclin-dependent kinase 5/CDK5 activator 1 (Q15078 whole entry, further chain): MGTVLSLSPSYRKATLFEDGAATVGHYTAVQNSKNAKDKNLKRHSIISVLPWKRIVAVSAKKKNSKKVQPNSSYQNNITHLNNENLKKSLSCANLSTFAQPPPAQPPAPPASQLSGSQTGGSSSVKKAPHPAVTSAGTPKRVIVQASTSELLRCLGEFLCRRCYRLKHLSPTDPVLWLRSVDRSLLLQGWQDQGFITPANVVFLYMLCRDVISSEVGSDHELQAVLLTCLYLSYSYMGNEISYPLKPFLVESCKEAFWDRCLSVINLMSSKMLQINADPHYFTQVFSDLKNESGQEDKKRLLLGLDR

[15] = target: Cystic fibrosis transmembrane conductance regulator/Golgi-associated PDZ and coiled-coil motif-containing protein (Homo sapiens, UniProt P13569+Q9HD26); test: CAL PDZ peptide-binding inhibitors, dose response, biochemical, fluorescence polarization, Cerulean-tagged CAL PDZ, cherry-picks (AID 504773)
Chain of Cystic fibrosis transmembrane conductance regulator/Golgi-associated PDZ and coiled-coil motif-containing protein (P13569 whole entry, other chains not shown): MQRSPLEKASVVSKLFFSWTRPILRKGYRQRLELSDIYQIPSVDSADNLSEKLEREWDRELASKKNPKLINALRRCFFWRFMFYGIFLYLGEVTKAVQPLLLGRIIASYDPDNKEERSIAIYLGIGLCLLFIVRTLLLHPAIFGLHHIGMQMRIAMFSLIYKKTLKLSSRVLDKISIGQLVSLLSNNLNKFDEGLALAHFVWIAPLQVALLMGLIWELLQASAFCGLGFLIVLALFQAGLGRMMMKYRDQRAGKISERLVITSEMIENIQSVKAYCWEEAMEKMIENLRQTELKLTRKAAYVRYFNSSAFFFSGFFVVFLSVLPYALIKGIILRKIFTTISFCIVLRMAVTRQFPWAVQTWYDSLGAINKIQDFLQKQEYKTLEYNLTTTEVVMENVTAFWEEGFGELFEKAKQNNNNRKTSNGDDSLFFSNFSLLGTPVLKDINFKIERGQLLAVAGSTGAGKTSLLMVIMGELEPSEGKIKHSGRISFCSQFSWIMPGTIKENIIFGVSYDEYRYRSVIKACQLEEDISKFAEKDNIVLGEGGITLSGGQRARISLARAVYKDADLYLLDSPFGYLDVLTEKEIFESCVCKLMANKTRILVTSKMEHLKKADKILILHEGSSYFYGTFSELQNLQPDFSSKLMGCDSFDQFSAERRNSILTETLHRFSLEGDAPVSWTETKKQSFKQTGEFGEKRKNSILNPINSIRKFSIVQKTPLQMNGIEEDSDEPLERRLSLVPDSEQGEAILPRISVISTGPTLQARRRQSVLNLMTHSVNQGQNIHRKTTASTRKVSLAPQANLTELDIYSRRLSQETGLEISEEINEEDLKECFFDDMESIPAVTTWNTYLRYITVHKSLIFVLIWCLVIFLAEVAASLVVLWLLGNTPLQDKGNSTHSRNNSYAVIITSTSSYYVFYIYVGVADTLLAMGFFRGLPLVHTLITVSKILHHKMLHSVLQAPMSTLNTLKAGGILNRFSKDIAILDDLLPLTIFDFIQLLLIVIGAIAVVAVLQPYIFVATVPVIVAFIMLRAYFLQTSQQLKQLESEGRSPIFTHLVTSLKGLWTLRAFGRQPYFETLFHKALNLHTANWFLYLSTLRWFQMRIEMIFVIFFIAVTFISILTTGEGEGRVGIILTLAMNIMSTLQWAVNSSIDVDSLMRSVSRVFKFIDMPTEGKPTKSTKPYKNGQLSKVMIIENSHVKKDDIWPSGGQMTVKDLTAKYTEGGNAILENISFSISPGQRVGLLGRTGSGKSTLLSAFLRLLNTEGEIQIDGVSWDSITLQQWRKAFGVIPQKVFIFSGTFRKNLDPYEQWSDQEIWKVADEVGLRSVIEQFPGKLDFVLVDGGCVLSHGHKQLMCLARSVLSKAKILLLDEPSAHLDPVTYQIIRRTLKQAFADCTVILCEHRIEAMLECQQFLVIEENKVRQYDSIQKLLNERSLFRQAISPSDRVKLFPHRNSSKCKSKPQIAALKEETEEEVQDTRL

P388/ADR = test: cells; assay type: functional; conditions: Mus musculus
[16] = target: T2, Eukaryotic translation initiation factor 2-alpha kinase 3 (Homo sapiens, UniProt Q9NZJ5); test: Counterscreen assay for PERK inhibitors: Dose response cell-based high throughput screening assay to measure inhibition of PERK at 6 hours. [Related pubchem assays: 1522, 1416 ]; assay type: functional
T2 sequence (Q9NZJ5 whole entry): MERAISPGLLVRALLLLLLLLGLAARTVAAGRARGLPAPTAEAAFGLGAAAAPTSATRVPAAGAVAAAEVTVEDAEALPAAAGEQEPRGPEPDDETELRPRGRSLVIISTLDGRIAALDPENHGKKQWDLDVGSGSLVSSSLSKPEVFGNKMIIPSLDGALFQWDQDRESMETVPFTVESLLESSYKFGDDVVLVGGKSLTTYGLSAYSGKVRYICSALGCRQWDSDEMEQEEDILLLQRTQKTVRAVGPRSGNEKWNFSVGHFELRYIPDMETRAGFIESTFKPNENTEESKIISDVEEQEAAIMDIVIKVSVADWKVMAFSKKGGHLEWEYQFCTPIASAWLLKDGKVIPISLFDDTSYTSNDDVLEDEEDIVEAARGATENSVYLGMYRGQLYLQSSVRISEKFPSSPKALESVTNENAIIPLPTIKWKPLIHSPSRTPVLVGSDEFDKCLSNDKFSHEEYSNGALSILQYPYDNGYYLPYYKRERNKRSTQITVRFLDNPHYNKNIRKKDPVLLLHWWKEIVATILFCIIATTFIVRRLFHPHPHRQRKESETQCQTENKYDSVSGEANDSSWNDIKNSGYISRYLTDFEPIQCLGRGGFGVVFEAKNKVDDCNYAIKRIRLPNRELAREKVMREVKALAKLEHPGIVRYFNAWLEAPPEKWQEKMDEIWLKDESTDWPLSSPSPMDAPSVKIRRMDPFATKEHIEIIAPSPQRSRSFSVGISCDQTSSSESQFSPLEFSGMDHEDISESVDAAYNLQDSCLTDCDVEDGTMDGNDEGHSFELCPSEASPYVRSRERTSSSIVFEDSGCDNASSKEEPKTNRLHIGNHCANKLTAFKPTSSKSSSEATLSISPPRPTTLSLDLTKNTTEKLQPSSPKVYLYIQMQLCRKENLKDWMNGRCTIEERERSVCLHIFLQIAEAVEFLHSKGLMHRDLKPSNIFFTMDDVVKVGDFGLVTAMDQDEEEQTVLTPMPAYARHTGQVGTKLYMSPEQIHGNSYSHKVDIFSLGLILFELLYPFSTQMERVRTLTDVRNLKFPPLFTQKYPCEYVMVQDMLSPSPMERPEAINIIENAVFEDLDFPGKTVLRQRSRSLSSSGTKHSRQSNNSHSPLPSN

SN12K1 = test: cells; assay type: functional; conditions: Homo sapiens
BJ [17] = test: cytotoxicity toward Ras-transformed BJeLR fibroblasts, dose response, cell-based, alamar blue fluorescence, cherrypicked samples (AID 2631); assay type: functional; conditions: Homo sapiens;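 further: confirmatory dose-response assay in RAS-dependent BJ fibroblasts engineered with TERT, LT and ST, with cytotoxicity read by fluorescence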
P388 = test: cells; assay type: functional; conditions: Mus musculus
[18] = target: T2, Eukaryotic translation initiation factor 2-alpha kinase 3; test: Dose response cell-based high-throughput screening assay to measure PERK inhibition. [Related pubchem assays: 1416 ]; assay type: functional

Chain of NACHT, LRR and PYD domains-containing protein 3 (Q96P20 whole entry, the tested form may be a part): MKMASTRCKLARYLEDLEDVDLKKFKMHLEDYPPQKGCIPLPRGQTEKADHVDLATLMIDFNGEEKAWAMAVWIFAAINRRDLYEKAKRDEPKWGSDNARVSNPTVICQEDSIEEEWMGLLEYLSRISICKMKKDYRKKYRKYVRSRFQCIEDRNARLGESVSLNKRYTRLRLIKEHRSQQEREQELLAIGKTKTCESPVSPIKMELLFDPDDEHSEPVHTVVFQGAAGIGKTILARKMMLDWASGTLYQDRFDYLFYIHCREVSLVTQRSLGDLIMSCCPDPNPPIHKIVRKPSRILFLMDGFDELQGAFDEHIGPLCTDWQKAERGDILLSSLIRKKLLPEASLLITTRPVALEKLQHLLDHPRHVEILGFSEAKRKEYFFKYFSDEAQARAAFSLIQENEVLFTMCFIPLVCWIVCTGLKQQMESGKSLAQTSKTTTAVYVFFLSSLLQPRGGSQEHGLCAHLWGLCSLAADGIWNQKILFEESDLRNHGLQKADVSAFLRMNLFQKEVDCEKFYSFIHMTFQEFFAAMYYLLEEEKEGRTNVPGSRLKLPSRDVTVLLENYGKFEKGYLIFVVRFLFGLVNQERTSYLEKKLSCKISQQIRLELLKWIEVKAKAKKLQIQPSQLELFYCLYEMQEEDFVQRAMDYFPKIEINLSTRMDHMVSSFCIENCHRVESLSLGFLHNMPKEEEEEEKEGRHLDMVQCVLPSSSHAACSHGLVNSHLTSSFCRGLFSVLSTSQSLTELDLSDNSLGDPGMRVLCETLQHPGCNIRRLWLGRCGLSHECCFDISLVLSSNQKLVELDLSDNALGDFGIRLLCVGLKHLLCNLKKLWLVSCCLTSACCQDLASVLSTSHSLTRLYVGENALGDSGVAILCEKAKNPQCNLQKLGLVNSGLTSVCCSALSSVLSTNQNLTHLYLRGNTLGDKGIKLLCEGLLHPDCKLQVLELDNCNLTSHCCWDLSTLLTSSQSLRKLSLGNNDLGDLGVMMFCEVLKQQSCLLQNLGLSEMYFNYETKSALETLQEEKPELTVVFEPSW

## Cc1nc2ccc(Nc3nc4cc(S(=O)(=O)N5CCOCC5)ccc4o3)cc2s1
[1]
  IC50: > 100000 nM (inactive)
[2]
  IC50: > 80000 nM (inactive)

## CSc1nc(N(C)NC(=O)c2cccc(C)c2)c2ccccc2n1
[3]
  EC50: 87 nM (active)
[4]
  IC50: > 80000 nM (inactive)
cells
  EC50: 104 nM (active)
[5]
  IC50: 140 nM (active)
[6]
  EC50: < 100 nM (active)
BJ [7]
  EC50: 272 nM (active)
[8]
  EC50: < 100 nM (active)
[9]
  EC50: < 100 nM (active)
[10]
  EC50: 73 nM (active)

## COc1ccc2cc(C)c3nnc(SCC(=O)Nc4nc(-c5ccccc5)cs4)n3c2c1
[11]
  EC50: 1030 nM (active)

## O=C(Nc1cccc(NC(=O)C2CCCC2)c1)c1ccccc1Br
[12]
  AC50: 8810 nM (active)

## ON=C1c2ccccc2-c2ccc(O)cc21
[13]
  IC50: 23600 nM (active)
[14]
  AC50: 17600 nM (active)

## O=C1CC(c2ccccc2)=C(c2ccccc2)C1
[15]
  AC50: 18700 nM (active)

## CC[C@@]1(O)C(=O)OCc2c1cc1n(c2=O)Cc2cc3ccccc3nc2-1 [CAMPTOTHECIN]
P388/ADR
  GI50: 25.4 nM (active)
[16]
  EC50: > 55700 nM (not active)
SN12K1
  GI50: 24.5 nM (active)
BJ [17]
  EC50: 7.67 nM (active)
P388
  GI50: 26.7 nM (active)
[8]
  EC50: 134 nM (active)
[18]
  EC50: > 55700 nM (not active)
[9]
  EC50: < 100 nM (active)
